Assay [1] deals with T1, α4β7 (Homo sapiens, UniProt P13612+P26010). Nature of the assay: α4β7-MAdCAM Cell Adhesion Assay (RPMI 8866 human cells). The format is cell-based. Also noted: host or cells: RPMI 8866 human B lymphoblastoid cells. In outline:
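Adhesion read-out: MTT absorbance at 570 nm minus no-cell wells, after three washes. Plates coated with rh MAdCAM-1/Fc received peptide dilutions plus 200,000 RPMI 8866 cells in Mn2+ (1 mM)-supplemented DMEM, 0.1% BSA, HEPES pH 7, incubated 30-45 min, 37 °C.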

Assay [2] addresses T1, α4β7. As to the kind of experiment: PBMC Memory T Cell Adhesion Assay, adhesion to MAdCAM-1. The format is cell-based. The method, then: Fresh CD4+/CD45RO+ memory T cells were isolated from human peripheral blood mononuclear cell (PBMC) donors by Aragen Bioscience Inc. (Morgan Hill, Calif.). The assay plate was prepared using IgG Fc capture antibody (donkey anti human) immobilized at 500 ng/well in 50 mM sodium bicarbonate buffer, pH 9.5, ON, 4C onto a Greiner Fluotrac plate (100 ul per well). The plate was rinsed two time with Blocking Buffer (25 mM Tris HCl, pH7.5, 150 mM NaCl, 1.5% BSA, 0.05% Tween), and blocked with Blocking Buffer for 2 hours at 37 C or 5 hours at RT using 200 ul per well. The Blocking Buffer was removed and either MAdCAM-1 or VCAM-1 at 400 ng/well in Blocking Buffer was added and the plate incubated overnight at 4C (100 ul per well). The plate was washed two times with Blocking Buffer, and rinsed once with 200 ul Binding Media (DMEM phenol red free, 10 mM HEPES, 1×Na pyruvate, 1× Glutamine, and supplemented with 1 mM MnCl2 prior to use). To prepare cells, approximately 25 million CD4+/CD45RO+ memory T cells were counted by trypan blue exclusion using a haemocytometer to determine viability and cell count. The cells were transferred to a 50 ml conical tube, and centrifuged at 1200 rpm for 10 minute. The media was aspirated and the cell pellet resuspended in 15 ml Binding Media. The cells were centrifuged again and resuspended in the appropriate amount of Binding Media to be used for assays (50 ul of cells per well at 2× the final density). To each well, and equal volume (50 ul) of test compound was added and the plate was incubated for 1.5 hours at 37 C, 5% CO2. Each well was rinsed 3× with 150 ul per well of Binding Media. […] The plate was incubated at 37 C, 5% CO2, for 45 minutes. The plate was protected from light by using black adhesive seals. Fluorescence intensity was measured using a Molecular Devices Gemini EM Fluorescent Plate Reader (Ex 485/Em530, Bottom Read, Reading Sensitivity=20). IC50 curves are generated using Graph Pad Prism and the curves analyzed using analyzed using a non-linear regression (four parameters) algorithm. The log (concentration) versus RFU (Ex485/Em530) was plotted to determine IC50 values.

Setting [3] is: Table 4-B, read-out: Cell Adhesion α4β7 IC50.
The mark [4] stands for this setting: Table 3-B, Potency (α4β7), range classes, read-out: α4β7 cell (Hu) IC50.
Where [5] appears, read: Table 3-B, range classes, read-out: PBMC IC50.

Numbered stars: 1 amine (or outer) side, 2 acyl side, 3 side chain; on linkers, the order of the positions; unused ones are H or OH. Bridge positions count the residues as written; N and C are the ends. Square brackets hold non-standard residues; d marks the D form. Peptide text beside a SMILES is read from it. I, II: the chains in the order shown. ξ: configuration not given here. Phe(4-COOH) = N[C@@H](Cc1ccc(C(=O)O)cc1)C(=O)O; Phe(4-tBu) = CC(C)(C)c1ccc(C[C@H](N)C(=O)O)cc1; 1Nal = N[C@@H](Cc1cccc2ccccc12)C(=O)O; Diglycolyl = O=C(COCC(=O)[*:2])[*:1]; NMeR = CN[C@@H](CCCNC(=N)N)C(=O)O; β3hE = N[C@@H](CCC(=O)O)CC(=O)O; Thr(3ξ) = CC(O)[C@H](N)C(=O)O; NMeK = CN[C@@H](CCCCN)C(=O)O; Pen = CC(C)(S)[C@H](N)C(=O)O A value given as a limit tells only on which side of the number the result lay.

T1 sequence (P13612 34-1032): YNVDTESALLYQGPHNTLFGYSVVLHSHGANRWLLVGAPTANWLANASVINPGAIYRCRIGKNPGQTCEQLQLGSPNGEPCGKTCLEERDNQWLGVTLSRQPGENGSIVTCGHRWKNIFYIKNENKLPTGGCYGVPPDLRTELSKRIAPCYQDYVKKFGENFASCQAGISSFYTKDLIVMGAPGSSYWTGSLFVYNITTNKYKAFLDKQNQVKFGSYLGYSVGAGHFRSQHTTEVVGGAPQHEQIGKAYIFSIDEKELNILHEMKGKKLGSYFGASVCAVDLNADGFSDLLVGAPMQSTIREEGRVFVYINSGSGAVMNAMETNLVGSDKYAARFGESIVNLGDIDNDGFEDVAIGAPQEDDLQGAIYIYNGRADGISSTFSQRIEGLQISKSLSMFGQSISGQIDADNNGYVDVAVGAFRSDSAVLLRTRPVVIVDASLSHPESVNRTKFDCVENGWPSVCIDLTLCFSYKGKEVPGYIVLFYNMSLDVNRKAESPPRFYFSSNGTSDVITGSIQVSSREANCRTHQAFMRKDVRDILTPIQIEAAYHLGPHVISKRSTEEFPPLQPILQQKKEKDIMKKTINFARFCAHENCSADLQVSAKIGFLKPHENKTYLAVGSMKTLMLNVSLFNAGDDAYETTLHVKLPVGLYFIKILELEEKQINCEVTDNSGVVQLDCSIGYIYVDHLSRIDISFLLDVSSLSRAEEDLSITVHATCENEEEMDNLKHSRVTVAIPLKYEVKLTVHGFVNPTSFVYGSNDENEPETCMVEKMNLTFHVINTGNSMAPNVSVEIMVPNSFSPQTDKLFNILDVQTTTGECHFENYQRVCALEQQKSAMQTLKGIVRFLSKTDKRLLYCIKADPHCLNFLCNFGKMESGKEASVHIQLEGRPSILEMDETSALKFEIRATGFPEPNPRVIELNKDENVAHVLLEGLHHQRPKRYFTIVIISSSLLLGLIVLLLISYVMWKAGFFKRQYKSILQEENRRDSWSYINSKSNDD
T1 sequence (P26010 20-798): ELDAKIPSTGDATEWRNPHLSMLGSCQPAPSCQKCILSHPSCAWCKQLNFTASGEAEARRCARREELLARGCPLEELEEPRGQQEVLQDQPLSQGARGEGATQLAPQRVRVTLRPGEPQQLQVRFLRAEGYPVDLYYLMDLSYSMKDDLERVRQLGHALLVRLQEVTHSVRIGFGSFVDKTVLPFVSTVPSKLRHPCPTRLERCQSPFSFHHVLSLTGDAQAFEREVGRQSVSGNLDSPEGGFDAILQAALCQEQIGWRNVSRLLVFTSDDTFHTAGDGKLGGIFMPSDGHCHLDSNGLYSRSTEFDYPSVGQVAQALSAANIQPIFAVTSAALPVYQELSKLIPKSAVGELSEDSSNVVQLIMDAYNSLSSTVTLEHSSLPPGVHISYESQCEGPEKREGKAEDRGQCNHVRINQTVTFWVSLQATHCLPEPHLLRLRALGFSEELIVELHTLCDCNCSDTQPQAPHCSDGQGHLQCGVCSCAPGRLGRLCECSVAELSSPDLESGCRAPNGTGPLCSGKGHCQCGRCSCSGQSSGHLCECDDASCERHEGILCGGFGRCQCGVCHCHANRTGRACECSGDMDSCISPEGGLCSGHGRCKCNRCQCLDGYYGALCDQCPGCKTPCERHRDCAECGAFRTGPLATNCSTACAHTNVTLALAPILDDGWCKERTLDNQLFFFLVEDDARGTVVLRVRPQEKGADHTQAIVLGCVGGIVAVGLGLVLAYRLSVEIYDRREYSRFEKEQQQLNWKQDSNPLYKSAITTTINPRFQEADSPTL

In general, IC50 refers to the point on the concentration scale where inhibition reaches its midpoint. Consider `CC(=O)N[C@@H]1C(=O)N(C)[C@@H](CCCNC(=N)N)C(=O)N[C@@H](CO)C(=O)N[C@@H](CC(=O)O)C(=O)N[C@@H]([C@@H](C)O)C(=O)N[C@@H](CC(C)C)C(=O)N[C@H](C(=O)N[C@@H](Cc2c[nH]c3ccccc23)C(=O)N[C@@H](CCC(=O)O)C(=O)N(C)[C@@H](CCCCNC(=O)COCC(=O)NCCCC[C@@H](C(N)=O)N(C)C(=O)[C@H](CCC(=O)O)NC(=O)[C@H](Cc2c[nH]c3ccccc23)NC(=O)[C@H]2NC(=O)[C@H](CC(C)C)NC(=O)[C@H]([C@@H](C)O)NC(=O)[C@H](CC(=O)O)NC(=O)[C@H](CO)NC(=O)[C@H](CCCNC(=N)N)N(C)C(=O)[C@@H](NC(C)=O)C(C)(C)SSC2(C)C)C(N)=O)C(C)(C)SSC1(C)C` [compound 215, [Ac-Pen-(N-Me-Arg)-Ser-Asp-Thr-Leu-Pen-Trp-Glu-(N-Me-Lys)-NH2]2-DIG] (I: Ac-[Pen][NMeR]SDTL[Pen]WE[NMeK]-NH2 / II: Ac-[Pen][NMeR]SDTL[Pen]WE[NMeK]-NH2; disulfide I:1-I:7, II:1-II:7 (inferred); linker I:10-II:10 via Diglycolyl (inferred)), for which the IC50 came to 3 nM on α4β7 [1] (setting [3]) and 16.5 nM on α4β7 [2] (Table 4-B, read-out: Cell Adhesion PBMC IC50).

As for `CC(=O)N[C@@H]1C(=O)N(C)[C@@H](CCCNC(=N)N)C(=O)N[C@@H](CO)C(=O)N[C@@H](CC(=O)O)C(=O)N[C@@H]([C@@H](C)O)C(=O)N[C@@H](CC(C)C)C(=O)N[C@H](C(=O)N[C@@H](Cc2ccc(C(=O)O)cc2)C(=O)N[C@@H](CCC(=O)O)C(=O)N(C)[C@@H](CCCCNC(=O)COCC(=O)NCCCC[C@@H](C(N)=O)N(C)C(=O)[C@H](CCC(=O)O)NC(=O)[C@H](Cc2ccc(C(=O)O)cc2)NC(=O)[C@H]2NC(=O)[C@H](CC(C)C)NC(=O)[C@H]([C@@H](C)O)NC(=O)[C@H](CC(=O)O)NC(=O)[C@H](CO)NC(=O)[C@H](CCCNC(=N)N)N(C)C(=O)[C@@H](NC(C)=O)C(C)(C)SSC2(C)C)C(N)=O)C(C)(C)SSC1(C)C` [compound 147] (I: Ac-[Pen][NMeR]SDTL[Pen][Phe(4-COOH)]E[NMeK]-NH2 / II: Ac-[Pen][NMeR]SDTL[Pen][Phe(4-COOH)]E[NMeK]-NH2; disulfide I:1-I:7, II:1-II:7; linker I:10-II:10 via Diglycolyl), the IC50 at α4β7 [1] (setting [4]) and on α4β7 [2] (setting [5]) was less than 10 nM throughout.

For `CC(=O)N[C@@H]1C(=O)N(C)[C@@H](CCCNC(=N)N)C(=O)N[C@@H](CO)C(=O)N[C@@H](CC(=O)O)C(=O)N[C@@H]([C@@H](C)O)C(=O)N[C@@H](CC(C)C)C(=O)N[C@H](C(=O)N[C@@H](Cc2ccc(C(C)(C)C)cc2)C(=O)N[C@@H](CCC(=O)O)CC(=O)O)C(C)(C)SSC1(C)C` [compound 152] (Ac-[Pen][NMeR]SDTL[Pen][Phe(4-tBu)][β3hE]-OH; disulfide 1-7), the IC50 is less than 10 nM on α4β7 [1] (setting [4]) and 25 to 50 nM at α4β7 [2] (setting [5]).

`CC(=O)N[C@@H]1C(=O)N(C)[C@@H](CCCNC(=N)N)C(=O)N[C@@H](CO)C(=O)N[C@@H](CC(=O)O)C(=O)N[C@@H]([C@@H](C)O)C(=O)N[C@@H](CC(C)C)C(=O)N[C@H](C(=O)N[C@@H](Cc2cccc3ccccc23)C(=O)N[C@@H](CCC(=O)O)CC(=O)N(C)[C@@H](CCCCNC(=O)COCC(=O)NCCCC[C@@H](C(N)=O)N(C)C(=O)C[C@H](CCC(=O)O)NC(=O)[C@H](Cc2cccc3ccccc23)NC(=O)[C@H]2NC(=O)[C@H](CC(C)C)NC(=O)[C@H]([C@@H](C)O)NC(=O)[C@H](CC(=O)O)NC(=O)[C@H](CO)NC(=O)[C@H](CCCNC(=N)N)N(C)C(=O)[C@@H](NC(C)=O)C(C)(C)SSC2(C)C)C(N)=O)C(C)(C)SSC1(C)C` [compound 142] (I: Ac-[Pen][NMeR]SDTL[Pen][1Nal][β3hE][NMeK]-NH2 / II: Ac-[Pen][NMeR]SDTL[Pen][1Nal][β3hE][NMeK]-NH2; disulfide I:1-I:7, II:1-II:7; linker I:10-II:10 via Diglycolyl): the figures for the 50% inhibitory concentration (IC50) at α4β7 [1] (setting [4]) and on α4β7 [2] (setting [5]) were less than 10 nM and 50 to 100 nM, respectively.

Turning to `CC(=O)N[C@@H]1C(=O)N(C)[C@@H](CCCNC(=N)N)C(=O)N[C@@H](CO)C(=O)N[C@@H](CC(=O)O)C(=O)N[C@@H](C(C)O)C(=O)N[C@@H](CC(C)C)C(=O)N[C@H](C(=O)N[C@@H](Cc2ccc(C(C)(C)C)cc2)C(=O)N[C@@H](CCC(=O)O)CC(=O)N[C@H](CCCCNC(=O)COCC(=O)NCCCC[C@@H](NC(=O)C[C@H](CCC(=O)O)NC(=O)[C@H](Cc2ccc(C(C)(C)C)cc2)NC(=O)[C@H]2NC(=O)[C@H](CC(C)C)NC(=O)[C@H](C(C)O)NC(=O)[C@H](CC(=O)O)NC(=O)[C@H](CO)NC(=O)[C@H](CCCNC(=N)N)N(C)C(=O)[C@@H](NC(C)=O)C(C)(C)SSC2(C)C)C(N)=O)C(N)=O)C(C)(C)SSC1(C)C` (stereo partly drawn) [Peptide X, [Ac-Pen-(N-Me-Arg)-Ser-Asp-Thr-Leu-Pen-(Phe(4-tBu))-(β-homoGlu)-(D-Lys)]2-DIG] (I: Ac-[Pen][NMeR]SD[Thr(3ξ)]L[Pen][Phe(4-tBu)][β3hE][dK]-NH2 / II: Ac-[Pen][NMeR]SD[Thr(3ξ)]L[Pen][Phe(4-tBu)][β3hE][dK]-NH2; disulfide I:1-I:7, II:1-II:7; linker I:10-II:10 via Diglycolyl), the IC50 on α4β7 [1] (human B cell lymphoblastoid RPMI8866, read-out: IC50 for blocking adhesion of RPMI8866 cell line to MAdCAM-1) amounted to 0.72 nM; on α4β7 [2] (average, cells isolated from 4 different human PBMC donors, read-out: IC50 (nM), memory T cells, Integrin α4β7, Ligand MAdCAM-1), 1.3 nM; on α4β7 [2] (read-out: IC50 for α4β7 T cells), 1 nM.

Turning to `CC(=O)N[C@@H]1C(=O)N(C)[C@@H](CCCNC(=N)N)C(=O)N[C@@H](CO)C(=O)N[C@@H](CC(=O)O)C(=O)N[C@@H]([C@@H](C)O)C(=O)N[C@@H](CC(C)C)C(=O)N[C@H](C(=O)N[C@@H](Cc2ccc(C(C)(C)C)cc2)C(=O)N[C@@H](CCC(=O)O)CC(=O)N(C)[C@@H](CCCCNC(=O)COCC(=O)NCCCC[C@@H](C(N)=O)N(C)C(=O)C[C@H](CCC(=O)O)NC(=O)[C@H](Cc2ccc(C(C)(C)C)cc2)NC(=O)[C@H]2NC(=O)[C@H](CC(C)C)NC(=O)[C@H]([C@@H](C)O)NC(=O)[C@H](CC(=O)O)NC(=O)[C@H](CO)NC(=O)[C@H](CCCNC(=N)N)N(C)C(=O)[C@@H](NC(C)=O)C(C)(C)SSC2(C)C)C(N)=O)C(C)(C)SSC1(C)C` [compound 149] (I: Ac-[Pen][NMeR]SDTL[Pen][Phe(4-tBu)][β3hE][NMeK]-NH2 / II: Ac-[Pen][NMeR]SDTL[Pen][Phe(4-tBu)][β3hE][NMeK]-NH2; disulfide I:1-I:7, II:1-II:7; linker I:10-II:10 via Diglycolyl), the IC50 on α4β7 [1] (setting [4]) and at α4β7 [2] (setting [5]) was less than 10 nM in each case.

`CC(=O)N[C@H]1CSSC[C@@H](C(=O)NCC(=O)N[C@@H](CCC(=O)O)C(=O)N[C@@H](CCCCNC(=O)COCC(=O)NCCCC[C@H](NC(=O)[C@H](CCC(=O)O)NC(=O)CNC(=O)[C@@H]2CSSC[C@H](NC(C)=O)C(=O)N(C)[C@@H](CCCNC(=N)N)C(=O)N[C@@H](CO)C(=O)N[C@@H](CC(=O)O)C(=O)N[C@@H]([C@@H](C)O)C(=O)N[C@@H](CC(C)C)C(=O)N2)C(=O)O)C(=O)O)NC(=O)[C@H](CC(C)C)NC(=O)[C@H]([C@@H](C)O)NC(=O)[C@H](CC(=O)O)NC(=O)[C@H](CO)NC(=O)[C@H](CCCNC(=N)N)N(C)C1=O` [compound 201, (Ac-C-N-Me-R-S-D-T-L-C-G-E-K-OH)2-DIG] (I: Ac-C[NMeR]SDTLCGEK-OH / II: Ac-C[NMeR]SDTLCGEK-OH; disulfide I:1-I:7, II:1-II:7 (inferred); linker I:10-II:10 via Diglycolyl (inferred)): the IC50 at α4β7 [1] (setting [3]) worked out at 28 nM.

The values are drawn from patent US9809623B2, “α4β7 peptide monomer and dimer antagonists” (Protagonist Therapeutics, Inc., priority 2014, dated 2017).
